Molecular target: T1, HEK cells stably transfected with tetracycline inducible hNR1 and hNR2A (Homo sapiens, UniProt Q05586+Q12879)
T1 construct: expressed in transfected cells; host or cells: HEK cells, stably transfected, tetracycline/doxycycline inducible
Assay: Assay 1: Cell-Based Assay, cytosolic calcium response to positive allosteric modulators (with 30 μM glycine and 300 nM L-glutamate, EC30)
Settings: Table 3; cytosolic calcium response, with 30 μM glycine and 300 nM L-glutamate (EC30); — = no plateau was reached
Method in brief: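 Cells induced 24 h with 7.5 μg mL^−1 doxycycline plus 500 μM (+)-ketamine, loaded 60 min at 37 °C with calcium dye in Mg-free HBSS (1.8 mM Ca, probenecid, 10 μM (+)-ketamine, pH 7.15). Peak RFU over 5 min after compound addition, scaled to 100 μM L-glutamate (100%) and 0 μM (0%); four-parameter Hill fit for EC50, max % if no plateau.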

T1 sequence (Q12879 23-1464, other chains not shown): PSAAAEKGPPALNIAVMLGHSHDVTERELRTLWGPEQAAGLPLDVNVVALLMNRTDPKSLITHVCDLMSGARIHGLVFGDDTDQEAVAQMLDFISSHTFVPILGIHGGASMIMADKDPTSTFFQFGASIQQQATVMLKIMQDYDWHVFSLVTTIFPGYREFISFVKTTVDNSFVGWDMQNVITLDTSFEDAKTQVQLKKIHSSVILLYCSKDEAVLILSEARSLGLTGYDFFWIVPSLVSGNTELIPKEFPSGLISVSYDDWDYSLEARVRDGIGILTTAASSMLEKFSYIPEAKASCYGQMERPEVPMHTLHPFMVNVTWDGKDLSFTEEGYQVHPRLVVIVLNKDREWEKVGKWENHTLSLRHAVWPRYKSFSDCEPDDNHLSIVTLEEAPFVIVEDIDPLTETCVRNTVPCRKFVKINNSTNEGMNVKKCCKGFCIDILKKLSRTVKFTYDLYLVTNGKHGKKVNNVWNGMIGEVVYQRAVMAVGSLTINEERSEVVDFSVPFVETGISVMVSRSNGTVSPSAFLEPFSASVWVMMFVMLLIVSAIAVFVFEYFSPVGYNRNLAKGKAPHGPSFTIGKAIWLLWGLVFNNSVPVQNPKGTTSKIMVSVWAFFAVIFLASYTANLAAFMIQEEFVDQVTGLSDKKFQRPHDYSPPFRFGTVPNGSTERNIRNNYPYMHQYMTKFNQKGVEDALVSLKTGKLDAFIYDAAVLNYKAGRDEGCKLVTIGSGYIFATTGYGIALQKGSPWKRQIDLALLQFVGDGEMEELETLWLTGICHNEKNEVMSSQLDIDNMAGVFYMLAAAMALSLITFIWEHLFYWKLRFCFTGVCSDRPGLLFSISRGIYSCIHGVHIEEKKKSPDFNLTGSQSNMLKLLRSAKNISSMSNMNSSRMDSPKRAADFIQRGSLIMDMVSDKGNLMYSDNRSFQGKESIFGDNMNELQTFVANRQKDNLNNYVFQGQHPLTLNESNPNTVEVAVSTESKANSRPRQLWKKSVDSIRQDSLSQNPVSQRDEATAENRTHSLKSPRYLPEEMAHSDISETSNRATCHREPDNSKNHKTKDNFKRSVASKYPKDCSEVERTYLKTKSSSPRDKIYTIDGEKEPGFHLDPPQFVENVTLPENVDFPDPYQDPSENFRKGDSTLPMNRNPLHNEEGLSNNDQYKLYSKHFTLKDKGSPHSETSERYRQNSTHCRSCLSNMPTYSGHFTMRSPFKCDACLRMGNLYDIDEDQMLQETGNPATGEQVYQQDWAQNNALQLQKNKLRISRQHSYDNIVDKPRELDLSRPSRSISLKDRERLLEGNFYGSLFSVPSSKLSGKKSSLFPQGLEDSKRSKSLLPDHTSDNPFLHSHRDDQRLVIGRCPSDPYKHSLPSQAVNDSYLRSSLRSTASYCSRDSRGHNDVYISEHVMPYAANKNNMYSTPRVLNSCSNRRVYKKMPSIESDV

Row | EC50 [nM] | Structure (SMILES)
1 | 17600 | CC1CC1c1c(Cl)sc2nc(Cc3cccc(C(F)(F)F)c3F)cc(=O)n12 (stereo not shown) [compound 121, 2-chloro-7-[[2-fluoro-3-(trifluoromethyl)phenyl]methyl]-3-(2-methylcyclopropyl)thiazolo[3,2-a]pyrimidin-5-one]
2 | 9140 | Cc1sc2nc(Cn3nc(Cl)cc3C(F)(F)F)cc(=O)n2c1-c1cncnc1 [compound 122, 7-[[3-chloro-5-(trifluoromethyl)pyrazol-1-yl]methyl]-2-methyl-3-pyrimidin-5-yl-thiazolo[3,2-a]pyrimidin-5-one]
3 | 2590 | CCNC(=O)c1c(C)sc2nc(Cn3nc(C4CC4)cc3C(F)(F)F)cc(=O)n12 [compound 123, 7-[[3-cyclopropyl-5-(trifluoromethyl)pyrazol-1-yl]methyl]-N-ethyl-2-methyl-5-oxo-thiazolo[3,2-a]pyrimidine-3-carboxamide]
4 | 5900 | CCNC(=O)c1c(C)sc2nc(CN(C)c3ccc(Cl)cn3)cc(=O)n12 [compound 124, 7-[[(5-chloro-2-pyridyl)-methyl-amino]methyl]-N-ethyl-2-methyl-5-oxo-thiazolo[3,2-a]pyrimidine-3-carboxamide]
5 | 4870 | CCNC(=O)c1c(OC)sc2nc(Cn3nc(Cl)cc3C(F)(F)F)cc(=O)n12 [compound 127, 7-[[3-chloro-5-(trifluoromethyl)pyrazol-1-yl]methyl]-N-ethyl-2-methoxy-5-oxo-thiazolo[3,2-a]pyrimidine-3-carboxamide]
6 | 682 | CCNC(=O)c1c(OC)sc2nc(Cn3nc(C(F)(F)F)cc3Cl)cc(=O)n12 [compound 128, 7-[[5-chloro-3-(trifluoromethyl)pyrazol-1-yl]methyl]-N-ethyl-2-methoxy-5-oxo-thiazolo[3,2-a]pyrimidine-3-carboxamide]
7 | 774 | CCNC(=O)c1c(OC)sc2nc(Cn3nc(C(F)(F)F)cc3C3CC3)cc(=O)n12 [compound 129, 7-[[5-cyclopropyl-3-(trifluoromethyl)pyrazol-1-yl]methyl]-N-ethyl-2-methoxy-5-oxo-thiazolo[3,2-a]pyrimidine-3-carboxamide]
8 | 6860 | CCNC(=O)c1c(OC)sc2nc(Cn3nc(C4CC4)cc3C(F)(F)F)cc(=O)n12 [compound 130, 7-[[3-cyclopropyl-5-(trifluoromethyl)pyrazol-1-yl]methyl]-N-ethyl-2-methoxy-5-oxo-thiazolo[3,2-a]pyrimidine-3-carboxamide]
9 | 681 | Cc1sc2nc(Cc3cccc(C(F)(F)F)c3F)cc(=O)n2c1C1CC1C#N (stereo not shown) [compound 131, 2-[7-[[2-fluoro-3-(trifluoromethyl)phenyl]methyl]-2-methyl-5-oxo-thiazolo[3,2-a]pyrimidin-3-yl]cyclopropanecarbonitrile]
10 | 2040 | Cc1sc2nc(Cn3nc(C(F)(F)F)cc3Cl)cc(=O)n2c1-c1ccn[nH]1 [compound 132]
11 | 10100 | Cc1sc2nc(Cn3nc(Cl)cc3C(F)(F)F)cc(=O)n2c1-c1ccn[nH]1 [compound 133, 7-[[3-chloro-5-(trifluoromethyl)pyrazol-1-yl]methyl]-2-methyl-3-(1H-pyrazol-5-yl)thiazolo[3,2-a]pyrimidin-5-one]
12 | 501 | Cc1sc2nc(Cn3nc(C(F)(F)F)cc3Cl)cc(=O)n2c1-c1cccnc1 [compound 134, 7-[[5-chloro-3-(trifluoromethyl)pyrazol-1-yl]methyl]-2-methyl-3-(3-pyridyl)thiazolo[3,2-a]pyrimidin-5-one]
13 | 397 | C=C(C)c1c(C)sc2nc(Cn3nc(C(F)(F)F)cc3Cl)cc(=O)n12 [compound 135, 7-[[5-chloro-3-(trifluoromethyl)pyrazol-1-yl]methyl]-3-isopropenyl-2-methyl-thiazolo[3,2-a]pyrimidin-5-one]
14 | 775 | Cc1sc2nc(Cn3nc(C(F)(F)F)cc3Cl)cc(=O)n2c1-c1cncc(F)c1 [compound 138, 7-[[5-chloro-3-(trifluoromethyl)pyrazol-1-yl]methyl]-3-(5-fluoro-3-pyridyl)-2-methyl-thiazolo[3,2-a]pyrimidin-5-one]
15 | 6360 | Cc1sc2nc(Cn3nc(Cl)cc3C(F)(F)F)cc(=O)n2c1-c1cncc(F)c1 [compound 139, 7-[[3-chloro-5-(trifluoromethyl)pyrazol-1-yl]methyl]-3-(5-fluoro-3-pyridyl)-2-methyl-thiazolo[3,2-a]pyrimidin-5-one]
16 | 147 | CCC(=O)c1c(C)sc2nc(Cn3nc(C(F)(F)F)cc3Cl)cc(=O)n12 [compound 140, 7-[[5-chloro-3-(trifluoromethyl)pyrazol-1-yl]methyl]-2-methyl-3-propanoyl-thiazolo[3,2-a]pyrimidin-5-one]
17 | 328 | CCC(=O)c1c(C)sc2nc(Cn3nc(Cl)cc3C(F)(F)F)cc(=O)n12 [compound 141, 7-[[3-chloro-5-(trifluoromethyl)pyrazol-1-yl]methyl]-2-methyl-3-propanoyl-thiazolo[3,2-a]pyrimidin-5-one]

Row | EC50 [nM] | Structure (SMILES)
18 | 2090 | Cc1sc2nc(Cn3nc(C(F)(F)F)cc3Cl)cc(=O)n2c1-c1nccs1 [compound 142, 7-[[5-chloro-3-(trifluoromethyl)pyrazol-1-yl]methyl]-2-methyl-3-thiazol-2-yl-thiazolo[3,2-a]pyrimidin-5-one]
19 | 12000 | CCNC(=O)c1c(C)sc2nc(CN(C)c3ccc(F)cn3)cc(=O)n12 [compound 143, N-ethyl-7-[[(5-fluoro-2-pyridyl)-methyl-amino]methyl]-2-methyl-5-oxo-thiazolo[3,2-a]pyrimidine-3-carboxamide]
20 | 41.1 | N#CC1CC1c1c(C(F)(F)F)sc2nc(Cn3nc(C(F)(F)F)cc3Cl)cc(=O)n12 (stereo not shown) [compound 144, 2-[7-[[5-chloro-3-(trifluoromethyl)pyrazol-1-yl]methyl]-5-oxo-2-(trifluoromethyl)thiazolo[3,2-a]pyrimidin-3-yl]cyclopropanecarbonitrile]
21 | 132 | N#CC1CC1c1c(C(F)(F)F)sc2nc(Cn3nc(Cl)cc3C(F)(F)F)cc(=O)n12 (stereo not shown) [compound 145, 2-[7-[[3-chloro-5-(trifluoromethyl)pyrazol-1-yl]methyl]-5-oxo-2-(trifluoromethyl)thiazolo[3,2-a]pyrimidin-3-yl]cyclopropanecarbonitrile]
22 | 156 | N#Cc1cccc(Cc2cc(=O)n3c(C4CC4C(F)(F)F)c(C(F)(F)F)sc3n2)c1F (stereo not shown) [compound 146, 2-fluoro-3-[[5-oxo-2-(trifluoromethyl)-3-[2-(trifluoromethyl)cyclopropyl]thiazolo[3,2-a]pyrimidin-7-yl]methyl]benzonitrile]
23 | 1980 | CCNC(=O)c1c(C)sc2nc(CN(CC)c3ccc(F)cn3)cc(=O)n12 [compound 147, N-ethyl-7-[[ethyl-(5-fluoro-2-pyridyl)amino]methyl]-2-methyl-5-oxo-thiazolo[3,2-a]pyrimidine-3-carboxamide]
24 | 20800 | CCNC(=O)c1c(C)sc2nc(CN(CC)c3ccccn3)cc(=O)n12 [compound 148, N-ethyl-7-[[ethyl(2-pyridyl)amino]methyl]-2-methyl-5-oxo-thiazolo[3,2-a]pyrimidine-3-carboxamide]
25 | 729 | Cc1sc2nc(Cn3nc(C(F)(F)F)cc3Cl)cc(=O)n2c1-c1cncc(Cl)c1 [compound 149, 3-(5-chloro-3-pyridyl)-7-[[5-chloro-3-(trifluoromethyl)pyrazol-1-yl]methyl]-2-methyl-thiazolo[3,2-a]pyrimidin-5-one]
26 | 17300 | Cc1sc2nc(Cn3nc(Cl)cc3C(F)(F)F)cc(=O)n2c1-c1cncc(Cl)c1 [compound 150, 3-(5-chloro-3-pyridyl)-7-[[3-chloro-5-(trifluoromethyl)pyrazol-1-yl]methyl]-2-methyl-thiazolo[3,2-a]pyrimidin-5-one]
27 | 538 | Cc1sc2nc(Cn3nc(C(F)(F)F)cc3Cl)cc(=O)n2c1-c1cscn1 [compound 151, 7-[[5-chloro-3-(trifluoromethyl)pyrazol-1-yl]methyl]-2-methyl-3-thiazol-4-yl-thiazolo[3,2-a]pyrimidin-5-one]
28 | 2850 | CCNC(=O)c1c(C)sc2nc(CN(CC)c3ccc(Cl)cn3)cc(=O)n12 [compound 152, 7-[[(5-chloro-2-pyridyl)-ethyl-amino]methyl]-N-ethyl-2-methyl-5-oxo-thiazolo[3,2-a]pyrimidine-3-carboxamide]
29 | 73500 | Cc1sc2nc(Cn3nncc3C3CC3)cc(=O)n2c1C1CC1CO (stereo not shown) [compound 153, 7-[(5-Cyclopropyltriazol-1-yl)methyl]-3-[2-(hydroxymethyl)cyclopropyl]-2-methyl-thiazolo[3,2-a]pyrimidin-5-one]
30 | 1470 | CCNC(=O)c1c(OCC)sc2nc(Cc3cccc(C(F)(F)F)c3F)cc(=O)n12 [compound 156, 2-ethoxy-N-ethyl-7-[[2-fluoro-3-(trifluoromethyl)phenyl]methyl]-5-oxo-thiazolo[3,2-a]pyrimidine-3-carboxamide]
31 | 13000 | Cc1sc2nc(Cn3nc(C(F)(F)F)cc3Cl)cc(=O)n2c1-c1cccnc1F [compound 157, 7-[[5-chloro-3-(trifluoromethyl)pyrazol-1-yl]methyl]-3-(2-fluoro-3-pyridyl)-2-methyl-thiazolo[3,2-a]pyrimidin-5-one]
32 | 1420 | Cc1sc2nc(Cn3nc(C(F)(F)F)cc3Cl)cc(=O)n2c1-c1ncco1 [compound 158, 7-[[5-chloro-3-(trifluoromethyl)pyrazol-1-yl]methyl]-2-methyl-3-oxazol-2-yl-thiazolo[3,2-a]pyrimidin-5-one]
33 | 7590 | Cc1sc2nc(Cn3nc(Cl)cc3C(F)(F)F)cc(=O)n2c1-c1ncco1 [compound 159, 7-[[3-chloro-5-(trifluoromethyl)pyrazol-1-yl]methyl]-2-methyl-3-oxazol-2-yl-thiazolo[3,2-a]pyrimidin-5-one]
34 | 753 | Cc1sc2nc(Cn3nc(C(F)(F)F)cc3Cl)cc(=O)n2c1C(F)(F)F [compound 160, 7-[[5-chloro-3-(trifluoromethyl)pyrazol-1-yl]methyl]-2-methyl-3-(trifluoromethyl)thiazolo[3,2-a]pyrimidin-5-one]
